# Experimental data as given in publication PMC4335062, “Data-Driven Prediction and Design of bZIP Coiled-Coil Interactions” (PLoS Computational Biology, 2015).
# Where two headings read alike, the source gives them in different places. Where no end group is shown, it is not given here.
# How the values were obtained:
# Test in all cases: Direct-binding FRET assay
# ATF4 = target: T1, ATF4 (Homo sapiens, UniProt P18848); conditions: mean or single, read-out: Kd
# T1 construct: made in house
# T1 sequence (P18848 278-341 limits assumed): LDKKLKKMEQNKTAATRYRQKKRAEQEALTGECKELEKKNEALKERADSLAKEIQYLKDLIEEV
# Method: (§1) The direct binding assay was performed manually in 384-well plates and is similar to a previously described assay. Wells were filled with 20 μL of 1 mM TCEP-HCl. A 4 μM stock of acceptor protein was made fresh in 1 mM TCEP-HCl, and 20 μL was titrated in 2-fold dilutions over the wells. […] The direct-binding FRET data were fit as previously described. Briefly, the Kd of the designed peptide homodimer was experimentally determined and used with previously determined target homodimer Kd values to determine the heterodimer Kd. The homodimer Kd values used for the human bZIPs were from; experiments done by […] et al. used the same protein constructs for the human bZIP proteins, the same buffer conditions, and the same assay. The fitting used a system of ordinary differential equations to describe the concentrations of homo and heterodimers formed by the donor (D) and acceptor (A) as a function of the heterodimer Kd. MATLAB was used to simulate the binding experiment for different Kd values, and the value that gave the best agreement between simulation and experiment was assigned. A minimum 15% change in the donor fluorescence upon titrating the acceptor peptide from 0 to 1000 nM was required for a fit to be attempted. If this minimum was not met, the interaction was classified as “NS” for no signal change. […] For such curves, we removed the first five points and re-fit the data.
# XBP1 = target: T2, XBP1 (Homo sapiens, UniProt P17861); conditions: 23°C, N-terminal rhodamine design, read-out: Kd
# T2 construct: made in house
# T2 sequence (P17861 70-133 limits assumed): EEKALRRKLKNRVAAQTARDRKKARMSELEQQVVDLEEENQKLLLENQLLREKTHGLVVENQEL
# Method: as §1
# NFE2 = target: T3, NFE2 (Homo sapiens, UniProt Q16621); conditions: read-out: Kd
# T3 construct: made in house
# T3 sequence (Q16621 266-329 limits assumed): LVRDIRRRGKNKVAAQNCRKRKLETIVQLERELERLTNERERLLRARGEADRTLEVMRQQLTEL
# Method: as §1
# MAFF = target: T4, MAFF (Homo sapiens, UniProt Q9ULX9); conditions: read-out: Kd
# T4 construct: made in house
# T4 sequence (Q9ULX9 51-114 limits assumed): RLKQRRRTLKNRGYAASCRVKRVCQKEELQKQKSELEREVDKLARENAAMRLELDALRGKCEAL
# Method: as §1
# CREB1 = target: T5, CREB1 (Homo sapiens, UniProt P16220); conditions: mean or single, read-out: Kd
# T5 construct: made in house
# T5 sequence (P16220 269-327 limits assumed): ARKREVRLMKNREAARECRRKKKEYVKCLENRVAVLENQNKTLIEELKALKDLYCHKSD
# Method: as §1
# NFE2L3 = target: T6, NFE2L3 (Homo sapiens, UniProt Q9Y4A8); conditions: mean or single, read-out: Kd
# T6 construct: made in house
# T6 sequence (Q9Y4A8 578-641 limits assumed): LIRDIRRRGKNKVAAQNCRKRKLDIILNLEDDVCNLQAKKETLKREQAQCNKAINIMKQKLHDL
# Method: as §1
# ATF3 = target: T7, ATF3 (Homo sapiens, UniProt P18847); conditions: read-out: Kd
# T7 construct: made in house
# T7 sequence (P18847 86-149 limits assumed): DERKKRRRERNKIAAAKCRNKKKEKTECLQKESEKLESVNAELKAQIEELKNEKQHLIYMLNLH
# Method: as §1
# MAFB = MAFB (Homo sapiens, UniProt Q9Y5Q3); parameters: made in house; conditions: read-out: Kd
# MAFB, sequence (Q9Y5Q3 238-301 limits assumed): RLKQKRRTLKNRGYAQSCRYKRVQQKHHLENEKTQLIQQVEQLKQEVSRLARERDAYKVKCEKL
# Method: (§2) The direct binding assay was performed manually in 384-well plates and is similar to a previously described assay. Wells were filled with 20 μL of 1 mM TCEP-HCl. A 4 μM stock of acceptor protein was made fresh in 1 mM TCEP-HCl, and 20 μL was titrated in 2-fold dilutions over the wells. […] The direct-binding FRET data were fit as previously described. Briefly, the Kd of the designed peptide homodimer was experimentally determined and used with previously determined target homodimer Kd values to determine the heterodimer Kd. The homodimer Kd values used for the human bZIPs were from; experiments done by […] et al. used the same protein constructs for the human bZIP proteins, the same buffer conditions, and the same assay. The fitting used a system of ordinary differential equations to describe the concentrations of homo and heterodimers formed by the donor (D) and acceptor (A) as a function of the heterodimer Kd. MATLAB was used to simulate the binding experiment for different Kd values, and the value that gave the best agreement between simulation and experiment was assigned. A minimum 15% change in the donor fluorescence upon titrating the acceptor peptide from 0 to 1000 nM was required for a fit to be attempted. If this minimum was not met, the interaction was classified as “NS” for no signal change. […] These interactions were marked “AS” to indicate anomalous signal. We attributed this to interactions between the peptides, the dyes and the walls of the assay plates at low concentrations. These curves could not be fit, given their unusual shapes at low concentrations of acceptor. For such curves, we removed the first five points and re-fit the data. […] One example of this is increasing concentrations of acceptor causing an increase in donor fluorescence.
# MAF = MAF (Homo sapiens, UniProt O75444); parameters: made in house; conditions: read-out: Kd
# MAF, sequence (O75444 288-351 limits assumed): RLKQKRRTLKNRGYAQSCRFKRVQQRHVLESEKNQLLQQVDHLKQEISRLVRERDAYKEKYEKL
# Method: as §2
# [1] = 4°C, C-terminal rhodamine design
# [2] = 4°C, N-terminal rhodamine design
# [3] = 23°C, C-terminal rhodamine design
# [4] = 23°C, N-terminal rhodamine design
# [5] = 37°C, C-terminal rhodamine design
# [6] = 37°C, N-terminal rhodamine design
# [7] = 4°C, C-terminal fluorescein design as donor, TAMRA target titrated
# [8] = 4°C, C-terminal rhodamine design, mean or single
# [9] = 4°C, N-terminal rhodamine design, mean or single
# [10] = 23°C, C-terminal fluorescein design as donor, TAMRA target titrated
# [11] = 23°C, C-terminal rhodamine design, mean or single
# [12] = 23°C, N-terminal rhodamine design, mean or single
# [13] = 37°C, C-terminal fluorescein design as donor, TAMRA target titrated
# [14] = 37°C, C-terminal rhodamine design, mean or single
# [15] = 37°C, N-terminal rhodamine design, mean or single
sequence,measurement,setting,value
EREAQLENRVAHLKEKNQELKAQNLHLKEALSEAQNRNQELKNDA [XBP1-d1],Kd,ATF4; [1],> 1 µM
same,Kd,ATF4; [2],> 1 µM
same,Kd,ATF4; [3],> 1 µM
same,Kd,ATF4; [4],> 1 µM
same,Kd,ATF4; [5],> 1 µM
same,Kd,ATF4; [6],> 1 µM
same,Kd,XBP1; repeat 1,> 1 µM
same,Kd,XBP1; repeat 2,> 1 µM
same,Kd,XBP1; repeat 3,> 1 µM
same,Kd,NFE2; [7],> 1 µM
same,Kd,NFE2; [8],> 1 µM
same,Kd,NFE2; [9],> 1 µM
same,Kd,NFE2; [10],> 1 µM
same,Kd,NFE2; [11],> 1 µM
same,Kd,NFE2; [12],> 1 µM
same,Kd,NFE2; [13],> 1 µM
same,Kd,NFE2; [14],> 1 µM
same,Kd,NFE2; [15],> 1 µM
same,Kd,MAFF; [7],> 1 µM
same,Kd,MAFF; [8],> 1 µM
same,Kd,MAFF; [9],> 1 µM
same,Kd,MAFF; [10],> 1 µM
same,Kd,MAFF; [11],> 1 µM
same,Kd,MAFF; [12],> 1 µM
same,Kd,MAFF; [13],> 1 µM
same,Kd,MAFF; [14],> 1 µM
same,Kd,MAFF; [15],> 1 µM
same,Kd,CREB1; [1],> 5 µM
same,Kd,CREB1; [2],> 1 µM
same,Kd,CREB1; [3],> 1 µM
same,Kd,CREB1; [4],> 1 µM
same,Kd,CREB1; [5],> 1 µM
same,Kd,CREB1; [6],> 1 µM
same,Kd,NFE2L3; [1],> 1 µM
same,Kd,NFE2L3; [2],> 1 µM
same,Kd,NFE2L3; [3],> 1 µM
same,Kd,NFE2L3; [4],> 1 µM
same,Kd,NFE2L3; [5],> 5 µM
same,Kd,NFE2L3; [6],> 1 µM
same,Kd,ATF3; [7],> 1 µM
same,Kd,ATF3; [8],> 1 µM
same,Kd,ATF3; [9],> 1 µM
same,Kd,ATF3; [10],> 1 µM
same,Kd,ATF3; [11],> 1 µM
same,Kd,ATF3; [12],> 1 µM
same,Kd,ATF3; [13],> 1 µM
same,Kd,ATF3; [14],> 1 µM
same,Kd,ATF3; [15],> 1 µM
same,Kd,MAFB; [7],> 1 µM
same,Kd,MAFB; [8],> 5 µM
same,Kd,MAFB; [9],> 1 µM
same,Kd,MAFB; [10],> 1 µM
same,Kd,MAFB; [11],> 5 µM
same,Kd,MAFB; [12],> 1 µM
same,Kd,MAFB; [13],> 1 µM
same,Kd,MAFB; [14],> 5 µM
same,Kd,MAFB; [15],> 1 µM
same,Kd,MAF; [7],> 1 µM
same,Kd,MAF; [8],> 1 µM
same,Kd,MAF; [9],> 1 µM
same,Kd,MAF; [10],> 1 µM
same,Kd,MAF; [11],> 1 µM
same,Kd,MAF; [12],> 1 µM
same,Kd,MAF; [13],> 1 µM
same,Kd,MAF; [14],> 1 µM
same,Kd,MAF; [15],> 1 µM
